This passage reports Activity results from ChEMBL document CHEMBL1142231, “Proline-rich tyrosine kinase 2 regulates osteoprogenitor cells and bone formation, and offers an anabolic treatment approach for osteoporosis” (Proc Natl Acad Sci U S A, 2007).

Active and inactive are the calls of the source. The rule behind the calls is not given here.

The test system of assay [1] is Rattus norvegicus. In words: Effect on bone metabolism in ovariectomized Sprague-Dawley rat assessed as bone formation rate of proximal tibia cancellous bone at 10 mg/kg, po administered daily for 28 days. Format: functional.
The test system of assay [2] is Rattus norvegicus. Put plainly: Effect on bone metabolism in ovariectomized Sprague-Dawley rat assessed as bone formation rate of proximal tibia cancellous bone at 30 mg/kg, po administered daily for 28 days. Format: functional.
Assay [3] has as its system Rattus norvegicus. Put plainly: Prevention of bone loss in ovariectomized Sprague-Dawley rat assessed as osteoclast surface of proximal tibia cancellous bone at 10 mg/kg, po administered daily for 28 days. Format: functional.
The test system of assay [4] is Rattus norvegicus. In words: Prevention of bone loss in ovariectomized Sprague-Dawley rat assessed as osteoclast surface of proximal tibia cancellous bone at 30 mg/kg, po administered daily for 28 days. In kind it is functional.
The next assay has as its system Mesenchymal stem cell. Put plainly: Increase in alkaline phosphatase activity in human mesenchymal stem cells. In kind it is functional, cell-based.
Assay [5] deals with Rattus norvegicus. Put plainly: Effect on bone resorption in ovariectomized Sprague-Dawley rat assessed as serum C-telopeptide degradation product at 10 mg/kg, po administered daily for 28 days. In kind it is functional, organism-based. Set-up: dose 10 mg/kg.
For assay [6], the system named is Rattus norvegicus. Put plainly: Effect on bone resorption in ovariectomized Sprague-Dawley rat assessed as serum C-telopeptide degradation product at 30 mg/kg, po administered daily for 28 days. In kind it is functional, organism-based. Details: dose 30 mg/kg.
The subject of assay [7] is Rattus norvegicus. In words: Increase in bone formation in ovariectomized Sprague-Dawley rat assessed as mineralizing surface of proximal tibia cancellous bone at 10 mg/kg, po administered daily for 28 days. In kind it is functional.
Assay [8] deals with Rattus norvegicus. Put plainly: Increase in bone formation in ovariectomized Sprague-Dawley rat assessed as mineralizing surface of proximal tibia cancellous bone at 30 mg/kg, po administered daily for 28 days. Format: functional.
The test system of assay [9] is Rattus norvegicus. In words: Increase in bone formation in ovariectomized Sprague-Dawley rat assessed as mineral apposition rate of proximal tibia cancellous bone at 10 mg/kg, po administered daily for 28 days. In kind it is functional.
In assay [10] the test system is Rattus norvegicus. Put plainly: Increase in bone formation in ovariectomized Sprague-Dawley rat assessed as mineral apposition rate of proximal tibia cancellous bone at 30 mg/kg, po administered daily for 28 days. In kind it is functional.
In assay [11] the test system is Rattus norvegicus. In words: Effect on bone metabolism in po dosed ovariectomized Sprague-Dawley rat assessed as bone formation rate of proximal tibia cancellous bone. Format: functional.
In assay [12] the test system is Rattus norvegicus. Put plainly: Prevention of bone loss in po dosed ovariectomized Sprague-Dawley rat assessed as osteoclast surface of proximal tibia cancellous bone. Format: functional.
For assay [13], the system named is Rattus norvegicus. Put plainly: Effect on bone turnover in po dosed ovariectomized Sprague-Dawley rat assessed as mineralizing surface of proximal tibia cancellous bone. Format: functional.

For the compound `CN(c1ccccc1CNc1nc(Nc2ccc3c(c2)CC(=O)N3)ncc1C(F)(F)F)S(C)(=O)=O.Cl`, the Activity with Rattus norvegicus [1] is given as 240.17 microm2/micrometer/d; in the assay on Rattus norvegicus [2], 291.43 microm2/micrometer/d; in the assay with Rattus norvegicus [3] it was 7.83%; in the assay with Rattus norvegicus [4], 6.13%; with Rattus norvegicus [7], 36.81%; in the assay on Rattus norvegicus [8] it was 40.6%. Further, the results for the Activity with Rattus norvegicus [9] and with Rattus norvegicus [10] were 1.77 micrometer/day and 1.96 micrometer/day, respectively. The outcome with Mesenchymal stem cell was Active. Also, the outcome in the assay on Rattus norvegicus [5] and with Rattus norvegicus [6] was inactive.

On to `C#CC1(O)CC[C@H]2[C@@H]3CCc4cc(O)ccc4[C@H]3CC[C@@]21C` (single isomer, unassigned) [ETHINYL ESTRADIOL], for which the Activity with Rattus norvegicus [11] is given as 77.91 microm2/micrometer/d; in the assay with Rattus norvegicus [12], 4.55%; with Rattus norvegicus [13], 20.22%.
